Reference: US20050245461A1, “Methods for treating alcoholism” (priority 2004, published 2005)
“Also recorded” adds a separate entry of the source. Where two headings read alike, the source gives them in different places.

Columns and labels:
[1] = tested on: ethanol drinking (lever presses for ethanol cocktail); experiment: rat model of alcohol self-administration (operant lever pressing for 10% ethanol cocktail); settings: for effect on naltrexone's ability to decrease drinking when coadministered: coadministered with naltrexone, conclusion of Example 1; for ED50: Rattus norvegicus; for Lever Presses (Mean ± SEM): 30 min session
Protocol: Male Wistar rats (starting weight of 200±30 grams; Charles River Laboratories, MA) were individually housed with free access to food and water. […] These conditions were recorded once daily throughout the study.
Animals were trained daily in an operant chamber to press a lever to receive access to an ethanol cocktail as a reinforcer using a saccharin fading procedure. […] The final ethanol cocktail contained 10% ethanol in 0.04% saccharine. Each session lasted 30 minutes, during which the rat could press the lever twice to gain access to 0.1 mL of the ethanol cocktail. The operant chamber (Coulbourn Instruments, Allentown, Pa.) is a computer-controlled automated system which recorded the number of lever presses completed by a rat. At the end of the training period (6-8 weeks), rats which consistently drank a sufficient quantity of ethanol to produce a pharmacological effect (minimum intake of 0.6 g/kg/hour) were selected to participate in the drug studies. These trained rats were used repeatedly throughout these studies to control for intra-subject variability. All drugs were administered acutely with a minimum of a 2 day drug washout period.
Naltrexone was prepared daily in 0.9% saline and administered subcutaneously (SC). The anticonvulsants (gabapentin, carbamazepine, levetiracetam and lamotrigine) were suspended in 3% carboxymethyl cellulose; a total volume of 1 mL/kg of this suspension was delivered orally (PO) to the rat using a gavage tube.
The ability of naltrexone to reduce ethanol drinking (i.e., decrease the number of lever presses) was assessed in this animal model of self administration of ethanol. […] The total number of lever presses was recorded over the 30 minute test session. […] An anticonvulsant (gabapentin, carbamazepine, levetiracetam or lamotrigine) was coadministered with naltrexone to determine if it affected naltrexone's ability to decrease ethanol drinking. […] This dose allows one to determine if the co-administered drugs impaired or enhanced naltrexone's effect on ethanol drinking. The anticonvulsants were administered orally 30 minutes prior to a naltrexone injection (SC) (i.e., 60 minutes prior to the beginning of the ethanol drinking test session). The number of lever presses for the ethanol cocktail was recorded at the end of the 30 minute session.

[2] = tested on: audiogenic-induced convulsions; experiment: audiogenic-induced convulsions in mouse model of alcohol withdrawal
Protocol: These conditions were recorded once daily throughout the study.
Alcohol is provided in a nutritionally balanced liquid diet.

[3] = pharmacokinetic study: naltrexone in plasma alone or coadministered with gabapentin; assay type: in vivo, rat; settings: vehicle+naltrexone vs gabapentin+naltrexone (gabapentin 1 mg/kg, naltrexone 0.5 mg/kg), rats
Protocol: FIG. 3C is a line graph showing the amount of naltrexone in the plasma over a period of time for naltrexone administered alone or naltrexone coadministered with gabapentin.
To determine if this drug interaction might be effective in decreasing ethanol drinking with lower doses of naltrexone, the dose of gabapentin (1 mg/kg) was kept constant and the dose of naltrexone varied from 0.05 to 3.0 mg/kg (FIG. 3B). […] To determine if gabapentin may be altering the plasma profile of naltrexone at this dose combination, a pharmacokinetic study was run in a separate cohort group of rats.

alcohol withdrawal = settings: literature (Myrick 1998; Karam-Hage 2000; Minuk 1995); cited from earlier work
[4] = anticonvulsant 0.1 mg/kg PO + naltrexone 0.1 mg/kg SC
[5] = anticonvulsant 1.0 mg/kg PO + naltrexone 0.1 mg/kg SC
[6] = anticonvulsant 10.0 mg/kg PO + naltrexone 0.1 mg/kg SC

NC(=O)N1c2ccccc2C=Cc2ccccc21 [Carbamazepine, 5H-dibenz [b,f] azepine-5-carboxamide]
Number of Lever Presses (mean ± sem) [1, 4]: 68 ± 10 | Number of Lever Presses (mean ± sem) [1, 5]: 49 ± 8 | Number of Lever Presses (mean ± sem) [1, 6]: 48 ± 9 | effect of combination with naltrexone on ethanol drinking ([1]; carbamazepine 0.1-10.0 mg/kg PO + naltrexone 0.1 mg/kg): did not significantly affect | effect on naltrexone's ability to decrease drinking when coadministered [1]: did not impair or block | Withdrawal Rating (mean ± sem), behavioral response scale of 1-4 ([2]; carbamazepine 10 mg/kg PO + saline): 1.1 ± 0.1 | difference between drug groups on the audiogenic convulsion test ([2]; carbamazepine 10 mg/kg with/without naltrexone 3 mg/kg, p=0.18): no statistical differences

O=C1CC[C@@]2(O)[C@H]3Cc4ccc(O)c5c4[C@@]2(CCN3CC2CC2)[C@H]1O5 [Naltrexone]
ED50 ([1]; read-out: ED50 re-established): 0.1 mg/kg | ED50 ([1]; sc, read-out: ED50 (dose reducing lever responding for ethanol by approximately 50% compared to baseline)): 0.5 mg/kg | ED50 ([1]; sc, read-out: ED50 for decrease in number of lever presses): 0.1 to 0.5 mg/kg | decrease in lever presses vs baseline and vehicle control ([1]; lowest dose of naltrexone tested, 0.05 mg/kg): no significant decrease | dose dependence of decrease in number of lever presses ([1]; naltrexone 0-6 mg/kg SC): dose-dependent decrease | Approximate Absolute Ethanol Consumed ([1]; naltrexone 0.05 mg/kg SC): ~1.0 g/kg | Lever Presses (Mean ± SEM) ([1]; naltrexone 0.05 mg/kg SC): 132 ± 13.3 | Approximate Absolute Ethanol Consumed ([1]; naltrexone 0.1 mg/kg SC): ~0.7 g/kg | Lever Presses (Mean ± SEM) ([1]; naltrexone 0.1 mg/kg SC): 88 ± 8.6 | decrease in number of lever presses from the baseline ([1]; naltrexone 0.1 mg/kg, carbamazepine study): 42.4% | Approximate Absolute Ethanol Consumed ([1]; naltrexone 0.5 mg/kg SC): ~0.6 g/kg | Lever Presses (Mean ± SEM) ([1]; naltrexone 0.5 mg/kg SC): 83 ± 12.1 | decrease in lever responding for ethanol compared to non-drug baseline ([1]; naltrexone 0.5 mg/kg SC, levetiracetam study): 65% | specificity of decrease in drinking for ethanol versus saccharine ([1]; naltrexone 0.5 mg/kg SC, 0.1% saccharine solution substituted for ethanol cocktail): specific for ethanol; also recorded: selective for decreasing ethanol drinking | Approximate Absolute Ethanol Consumed ([1]; naltrexone 1.0 mg/kg SC): ~0.3 g/kg | Lever Presses (Mean ± SEM) ([1]; naltrexone 1.0 mg/kg SC): 43 ± 8.6 | Approximate Absolute Ethanol Consumed ([1]; naltrexone 3.0 mg/kg SC): ~0.2 g/kg | Lever Presses (Mean ± SEM) ([1]; naltrexone 3.0 mg/kg SC): 24 ± 8.1 | Approximate Absolute Ethanol Consumed ([1]; naltrexone 6.0 mg/kg SC): ~0.2 g/kg | Lever Presses (Mean ± SEM) ([1]; naltrexone 6.0 mg/kg SC): 21 ± 5.5 | effect on decreasing ethanol drinking at higher doses ([1]; naltrexone 3 and 6 mg/kg): appeared to plateau | decrease in number of lever presses for ethanol compared to non-drug baseline ([1]; naltrexone ED50 dose (0.5 mg/kg), gabapentin study): 54% | reduction in lever pressing for ethanol ([1]; naltrexone alone 0.5 mg/kg, additional testing, most of the animals): greater than 50% | decrease in lever responding for ethanol compared to non-drug baseline ([1]; naltrexone alone (0.1 mg/kg SC), lamotrigine study): 49% | Number of Lever Presses (mean ± sem) ([1]; vehicle (drug dose 0.0) PO + naltrexone 0.1 mg/kg SC, carbamazepine study): 67 ± 17 | Number of Lever Presses (mean ± sem) ([1]; vehicle (drug dose 0.0) PO + naltrexone 0.1 mg/kg SC, lamotrigine study): 74 ± 18 | Number of Lever Presses (mean ± sem) ([1]; vehicle (drug dose 0.0) PO + naltrexone 0.5 mg/kg SC, levetiracetam study): 50 ± 10 | plasma profile of naltrexone, difference between treatment groups [3]: no statistical difference | exacerbation of audiogenic-induced convulsions ([2]; naltrexone 3 mg/kg with carbamazepine 10 mg/kg, mice with alcohol withdrawal symptoms): did not exacerbate | interaction with carbamazepine's anticonvulsant activity ([2]; naltrexone 3 mg/kg, carbamazepine 10 mg/kg): did not appear to interact

1-(aminomethyl)cyclohexane acetic acid [Gabapentin]
effect on naltrexone's ability to decrease drinking when coadministered [1]: did not impair or block | enhancement of naltrexone's effect on alcohol drinking ([1]; coadministration of gabapentin, narrow therapeutic window): enhanced naltrexone's effects of alcohol drinking | ethanol drinking, combination compared to naltrexone alone ([1]; gabapentin 1 mg/kg PO plus naltrexone 0.5 mg/kg SC, p<0.006): further significant decrease | difference in number of lever presses, naltrexone alone vs combined with gabapentin ([1]; gabapentin 1 mg/kg constant, naltrexone 0.05 to 3.0 mg/kg, except at 0.5 mg/kg naltrexone): No differences | potentiation of naltrexone's decrease in ethanol drinking ([1]; gabapentin 0.1 and 10.0 mg/kg coadministered with naltrexone 0.5 mg/kg): not seen | effect on lever pressing for ethanol compared to non-drug treated conditions ([1]; gabapentin alone, 1 or 10 mg/kg): neither gabapentin at 1 or 10 mg/kg alone had any effect | safety and efficacy as alternatives to benzodiazepines for the treatment of alcohol withdrawal (alcohol withdrawal): safe and efficacious

CC[C@@H](C(N)=O)N1CCCC1=O (single isomer, unassigned) [Levetiracetam]
Number of Lever Presses (mean ± sem) ([1]; anticonvulsant 1.0 mg/kg PO + naltrexone 0.5 mg/kg SC): 34 ± 11 | Number of Lever Presses (mean ± sem) ([1]; anticonvulsant 10.0 mg/kg PO + naltrexone 0.5 mg/kg SC): 36 ± 8 | Number of Lever Presses (mean ± sem) ([1]; anticonvulsant 100.0 mg/kg PO + naltrexone 0.5 mg/kg SC): 34 ± 9 | effect on naltrexone's ability to decrease drinking when coadministered [1]: did not impair or block | difference between naltrexone (with vehicle) and combination with naltrexone, lever presses ([1]; levetiracetam 1-100 mg/kg PO + naltrexone 0.5 mg/kg SC): no significant differences

Nc1nnc(-c2cccc(Cl)c2Cl)c(N)n1 [Lamotrigine, 6-(2,3-dichlorophenyl)-1,2,4-trizine-3,5-diamine]
Number of Lever Presses (mean ± sem) [1, 4]: 61 ± 13 | Number of Lever Presses (mean ± sem) [1, 5]: 60 ± 13 | Number of Lever Presses (mean ± sem) [1, 6]: 567 ± 10 | effect on naltrexone's ability to decrease drinking when coadministered [1]: did not impair or block | effect of combination with naltrexone on number of lever presses for ethanol ([1]; lamotrigine 0.1-10 mg/kg PO + naltrexone 0.1 mg/kg SC): did not significantly affect

CCCC(CCC)C(=O)O [valproic acid, 2-propylpentanoic acid]
safety and efficacy as alternatives to benzodiazepines for the treatment of alcohol withdrawal (alcohol withdrawal): safe and efficacious
